Assay results published in paper PMC7225193, “An Integrated Dialysis Pharmacometric (IDP) Model to Evaluate the Pharmacokinetics in Patients Undergoing Renal Replacement Therapy” (Pharmaceutical Research, 2020).

Tests used:
[1] = cited from earlier work
[2] = In vitro RRT study of teicoplanin in bovine blood, evaluated with the IDP model; type: in vitro ADME
Method: For all population pharmacokinetic modelling work in this study, NONMEM® (ICON development service, Gaithersburg, MD, version 7.4) was used. The inter-individual variability of the pharmacokinetic parameters was assumed to be log-normally distributed. For the intra-individual, residual variability an additive, proportional or combined error model was used. In the clinical data examples, models were evaluated by graphical and numerical criteria (goodness of fit plots, visual predictive checks and drop in objective function value (dOFV)). The LLP-SIR (log-likelihood-profiling based sampling-importance-resampling) method was employed for the assessment of parameter uncertainty, since a small number of subjects or cases was investigated.
An in vitro study investigating RRT of teicoplanin in bovine blood was evaluated using the IDP model. 51 pre-filter plasma samples and 45 post-filter plasma samples were included. 45 effluent samples were collected which were all below the lower limit of quantification (5 mg/L), which was considered in the analyses by comparison to simulations after estimation. A blood concentration of 25 mg/L using a volume of 2.2–2.5 L was studied. The blood flow rate was set to 250 mL/min and the dialysate flow rate to 500 mL/min without filtration. In five experiments, a polysulphone membrane (n = 3: FX80, Fresenius Medical Company, Austria, n = 2: F60 S, Fresenius Medical Company, Austria), and in one experiment a triacetate membrane (Ni 21 e, Surflux-21E, Nipro Corporation, Japan) was used. The IDP model was used to describe the RRT clearance and adsorption to the dialysis membranes was evaluated.

[3] = patients with normal serum albumin concentrations; cited from earlier work
Source text: Protein binding plays an important role when the RRT clearance is only estimated based on drug characteristics, since it is assumed that only unbound drug can be dialyzed or filtrated. The integrated model allows direct assessment of the RRT clearance without assumptions on the efficacy in dialysis and filtration processes based on the unbound fraction. Moreover, elimination processes, that are independent of dialysis and filtration, e.g. adsorption to the dialysis membrane, can be quantified. RRT clearance of highly protein bound drugs, e.g. teicoplanin presenting a protein binding of >90% in ...

CLRRT ([2]; bovine blood, 25 mg/L, blood flow 250 mL/min, dialysate flow 500 mL/min, no filtration, IDP model) [mL/min]	FractionAdsorbed (fraction of the RRT clearance mediated via adsorption) ([2]; bovine blood, IDP model)	RRT clearance ([2]; bovine blood, IDP model, changing over time) [L/h]	Ads. capacity polysulfone FX80/F60S ([2]; polysulphone membranes, five experiments) [mg]	Adsorption capacity triacetate ([2]; triacetate membrane Ni 21 e, n = 1 experiment) [mg]	Compound	degradation half-life in stabilizing conditions [1] [h]	protein binding [3] [%]
					C[C@@H](O)[C@H]1C(=O)N2C(C(=O)O)=C(S[C@@H]3CN[C@H](CNS(N)(=O)=O)C3)[C@H](C)[C@H]12 [Doripenem, doripenem]	> 100	
76.5	0.891	4.59	31.2	8.6	teicoplanin		> 90
